One data set deals with Uromyces appendiculatus. The data set is described as follows: In vivo preventive test on Uromyces appendiculatus (bean rust). The note with it: bean plants, preventive spray, grading 11 days after contamination. The method, then: (§1) The active ingredients tested are prepared by homogenization in a mixture of acetone/tween/DMSO, and then diluted with water to obtain the desired active material concentration.
Bean plants (“Saxa” variety), sown in starter cups on a 50/50 peat soil-pozzolana substrate and grown at 24° C., are treated at the 2-leaf stage (9 cm height) by spraying with the active ingredient prepared as described above. Plants, used as controls, are treated with the mixture of acetone/tween/DMSO/water not containing the active material.
After 24 hours, the plants are contaminated by spraying the leaves with an aqueous suspension of Uromyces appendiculatus spores (150 000 spores per ml). The spores are collected from infected plants and are suspended in water containing 2.5 ml/l of Tween 80 at 10%. The contaminated bean plants are incubated for 24 hours at 20° C. and at 100% relative humidity, and then for 10 days at 20° C. and at 70-80% relative humidity.
Grading (% of efficacy) is carried out 11 days after the contamination, in comparison with the control plants.

Data set [1] can be described thus: logP by HPLC on reversed phase columns (EEC directive 79/831 Annex V.A8). It is filed as physicochemical. The following applies: method [a]: LC-MS at pH 2.7, 0.1% formic acid in water / acetonitrile; for chromatographic logP: reversed phase HPLC columns. The method, then:
Measurement of log P values was performed according EEC directive 79/831 Annex V.A8 by HPLC (High Performance Liquid Chromatography) on reversed phase columns with the following methods: ^[a] Measurement of LC-MS was done at pH 2.7 with 0.1% formic acid in water and with acetonitrile (contains 0.1% formic acid) as eluent with a linear gradient from 10% acetonitrile to 95% acetonitrile. ^[b] Measurement with LC-MS was done at pH 7.8 with 0.001 molar ammonium hydrogen carbonate solution in water as eluent with a linear gradient from 10% acetonitrile to 95% acetonitrile.

A further data set relates to Sphaerotheca fuliginea. The data set is described as follows: In vivo preventive test on Sphaerotheca fuliginea (powdery mildew on cucurbits). The following applies: 100 ppm, gherkin plants, preventive spray, grading 12 days after contamination. The method, then: (§2) The active ingredients tested are prepared by homogenization in a mixture of acetone/tween/DMSO and then diluted with water to obtain the desired active material concentration.
(§3) Gherkin plants (“Vert petit de Paris” variety), sown in starter cups on a 50/50 peat soil-pozzolana substrate and grown at 24° C., are treated at the Z11 cotyledon stage by spraying with the active ingredient prepared as described above. Plants, used as controls, are treated with the mixture of acetone/tween/DMSO/water not containing the active material.
After 24 hours, the plants are contaminated by spraying the cotyledons with an aqueous suspension of Sphaerotheca fuliginea spores (100 000 spores per ml). The spores are collected from infected plants. The contaminated gherkin plants are incubated at about 20° C. and at 70-80% relative humidity.
(§4) Grading (% of efficacy) is carried out 12 days after the contamination, in comparison with the control plants.

The next data set has as its system Puccinia recondita. The data set is described as follows: In vivo preventive test on Puccinia recondita (brown rust on wheat). The following applies: wheat plants, preventive spray, grading 12 days after contamination. The method, then: as §1
Wheat plants (“Scipion” variety), sown in starter cups on a 50/50 peat soil-pozzolana substrate and grown at 22° C., are treated at the 1-leaf stage (10 cm height) by spraying with the active ingredient prepared as described above. Plants, used as controls, are treated with the mixture of acetone/tween/DMSO/water not containing the active material.
After 24 hours, the plants are contaminated by spraying the leaves with an aqueous suspension of Puccinia […] spores (100 000 spores per ml). The spores are collected from an infected plant and are suspended in water containing 2.5 ml/l of Tween 80 at 10%. The contaminated wheat plants are incubated for 24 hours at 20° C. and at 100% relative humidity, and then for 10 days at 20° C. and at 70-80% relative humidity.
as §4

In the next data set the test system is Alternaria brassicae. The data set is described as follows: In vivo preventive test on Alternaria brassicae (leaf spot on radish). The following applies: 100 ppm, radish plants, preventive spray, grading 6 days after contamination. The method, then: Radish plants (“Pernod Clair” variety), sown in starter cups on a 50/50 peat soil-pozzolana substrate and grown at 17° C., are treated at the cotyledon stage by spraying with the active ingredient prepared as described above. Plants, used as controls, are treated with the mixture of acetone/tween/DMSO/water not containing the active material. After 24 hours, the plants are contaminated by spraying the cotyledons with an aqueous suspension of Alternaria brassicae spores (50 000 spores per ml). The spores are collected from a 15-day-old culture. The contaminated radish plants are incubated at 20° C. and at 100% relative humidity. Grading (% of efficacy) is carried out 6 days after the contamination, in comparison with the control plants.

A further data set has as its system Pyrenophora teres. Nature of the data set: In vivo preventive test on Pyrenophora teres (net blotch on barley). The following applies: 100 ppm, barley plants, preventive spray, grading 14 days after contamination. The method, then:
Barley plants (“Plaisant” variety), sown in starter cups on a 50/50 peat soil-pozzolana substrate and grown at 22° C., are treated at the 1-leaf stage (10 cm height) by spraying with the active ingredient prepared as described above. Plants, used as controls, are treated with the mixture of acetone/tween/DMSO/water not containing the active material. After 24 hours, the plants are contaminated by spraying the leaves with an aqueous suspension of Pyrenophora teres spores (12 000 spores per ml). The spores are collected from a 12-day-old culture. The contaminated barley plants are incubated for 48 hours at 20° C. and at 100% relative humidity, and then for 12 days at 20° C. at 70-80% relative humidity. Grading (% of efficacy) is carried out 14 days after the contamination, in comparison with the control plants.

A further data set relates to Botrytis cinerea. The data set is described as follows: In vivo preventive test on Botrytis cinerea (grey mould), gherkin plants. The following applies: 100 ppm, preventive spray, grading 4 to 5 days after contamination. The method, then:
as §2, §3
After 24 hours, the plants are contaminated by spraying the cotyledons with an aqueous suspension of cryopreserved Botrytis cinerea spores (50 000 spores per ml). The spores are suspended in a nutrient solution composed of 10 g/L of PDB, 50 g/L of D-Fructose, 2 g/L of NH4NO3 and 1 g/L of KH2PO4. The contaminated gherkin plants are incubated at 17° C. and at 90% relative humidity.
Grading (% of efficacy) is carried out 4 to 5 days after the contamination, in comparison with the control plants.

Take `CCC1OC(CC)(CC)c2cccc(NC(=O)c3c(C(F)F)nn(C)c3Br)c21` (stereo not drawn) [Example 19]: the Eff. % with Uromyces appendiculatus (100 ppm) came to 100%; with Sphaerotheca fuliginea, 83%; in the data set with Puccinia recondita (100 ppm), 98%; in the data set on Alternaria brassicae, 75%. The logP in data set [1] was 3.87[a].
Consider `CCC1OC(CC)(CC)c2cccc(NC(=O)c3c(C(F)F)nn(C)c3Cl)c21` (stereo not drawn) [Example 18], for which the Eff. % came out at 83% with Pyrenophora teres; 100% in the data set on Uromyces appendiculatus (100 ppm); 100% in the data set on Sphaerotheca fuliginea; 98% with Puccinia recondita (100 ppm); 75% with Alternaria brassicae. Also, the logP in data set [1] is 3.87[a].
Consider `CCC1OC(CC)(CC)c2cccc(NC(=S)c3cn(C)nc3C(F)F)c21` (stereo not drawn) [Example 26, 3-(difluoromethyl)-1-methyl-N-(1,1,3-triethyl-1,3-dihydro-2-benzofuran-4-yl)-1H-pyrazole-4-carbothioamide], for which the chromatographic logP – broadly, a lipophilicity value derived from retention on a column – in data set [1] amounted to 3.76.
On to `Cn1nc(C(F)F)c(C(=O)Nc2cccc3c2COC3(C)C)c1Cl` [Example 4], for which the Eff. % in the data set with Uromyces appendiculatus (500 ppm) and with Puccinia recondita (500 ppm) was 100% in each case. In addition, the logP in data set [1] is 2.55[a].
Turning to `Cn1cc(C(=O)Nc2cccc3c2COC3(C)C)c(C(F)F)n1` [Example 7], the Eff. % was 100% with Uromyces appendiculatus (500 ppm) and 98% in the data set with Puccinia recondita (500 ppm). Further, the logP in data set [1] is 2.1[a].
Take `CC(C)C1OC(C)(C)c2cccc(NC(=O)c3c(C(F)F)nn(C)c3Cl)c21` (stereo not drawn) [Example 14]: the Eff. % is 92% in the data set with Pyrenophora teres; 100% in the data set with Uromyces appendiculatus (100 ppm); 100% in the data set on Sphaerotheca fuliginea; 93% in the data set with Botrytis cinerea; 98% with Puccinia recondita (100 ppm); 75% in the data set with Alternaria brassicae. Besides, the logP in data set [1] is 3.33[a].
For the compound `CCC1OC(CC)(CC)c2cccc(NC(=O)c3c(C(F)F)nn(C)c3F)c21` (stereo not drawn) [Example 24], the Eff. % in the data set with Pyrenophora teres was found to be 83%; in the data set with Uromyces appendiculatus (100 ppm), 100%; in the data set on Sphaerotheca fuliginea, 100%; in the data set with Botrytis cinerea it was 87%; with Puccinia recondita (100 ppm) it was 98%; in the data set on Alternaria brassicae it was 75%. For the same compound, the logP in data set [1] is 3.65[a].
For the compound `CCC1OC(C)(C)c2cccc(NC(=O)c3cn(C)nc3C(F)F)c21` (stereo not drawn) [Example 16], the Eff. % in the data set on Pyrenophora teres is listed as 83%; in the data set with Uromyces appendiculatus (100 ppm) it was 100%; in the data set on Sphaerotheca fuliginea, 98%; in the data set on Botrytis cinerea, 83%; with Puccinia recondita (100 ppm), 98%.
For the compound `CCC1OCc2cccc(NC(=O)c3c(C(F)F)nn(C)c3Br)c21` (stereo not drawn) [Example 20], the values for the Eff. % in the data set with Uromyces appendiculatus (100 ppm) and in the data set on Puccinia recondita (100 ppm) were 100% and 98%, respectively. In addition, the logP in data set [1] was 2.96[a].
Consider `CC1OC(C)(C)c2cccc(NC(=O)c3c(C(F)F)nn(C)c3Br)c21` (stereo not drawn) [Example 5], for which the Eff. % is given as 100% with Uromyces appendiculatus (500 ppm) and 97% in the data set on Puccinia recondita (500 ppm). For the same compound, the logP in data set [1] is 2.64[a].
`CC(C)C1OC(C)(C)c2cccc(NC(=O)c3c(C(F)F)nn(C)c3F)c21` (stereo not drawn) [Example 22, 3-(difluoromethyl)-5-fluoro-N-(3-isopropyl-1,1-dimethyl-1,3-dihydro-2-benzofuran-4-yl)-1-methyl-1H-pyrazole-4-carboxamide]: the Eff. % in the data set on Pyrenophora teres stood at 97%; in the data set on Uromyces appendiculatus (100 ppm), 99%; in the data set on Sphaerotheca fuliginea, 100%; in the data set on Botrytis cinerea, 98%; with Puccinia recondita (100 ppm), 98%. Besides, the chromatographic logP in data set [1] is 3.11.
Consider `CC(C)C1OC(C)(C)c2cccc(NC(=O)c3c(C(F)F)nn(C)c3Br)c21` (stereo not drawn) [Example 17], for which the Eff. % in the data set on Pyrenophora teres is on record as 83%; in the data set on Uromyces appendiculatus (100 ppm), 100%; with Puccinia recondita (100 ppm), 94%. Also, the logP in data set [1] was 3.33[a].
For `CC1OC(C)(C)c2cccc(NC(=O)c3cn(C)nc3C(F)F)c21` (stereo not drawn) [Example 10], the Eff. % is listed as 95% with Uromyces appendiculatus (500 ppm) and 94% in the data set on Puccinia recondita (500 ppm). Also, the logP in data set [1] was 2.15[a].
Regarding `CCC1OC(C)(C)c2cccc(NC(=O)c3c(C(F)F)nn(C)c3F)c21` (stereo not drawn) [Example 21], the Eff. % is reported as 100% in the data set on Uromyces appendiculatus (100 ppm), 98% with Sphaerotheca fuliginea, 93% in the data set on Botrytis cinerea and 98% with Puccinia recondita (100 ppm). Besides, in data set [1], the logP is 2.76[a].
For the compound `CC(C)C1OC(C)(C)c2cccc(NC(=O)c3cn(C)nc3C(F)F)c21` (stereo not drawn) [Example 25], the Eff. % with Pyrenophora teres is listed as 83%; in the data set on Uromyces appendiculatus (100 ppm), 99%; in the data set with Sphaerotheca fuliginea, 100%; in the data set on Botrytis cinerea it was 98%; in the data set on Puccinia recondita (100 ppm), 98%; with Alternaria brassicae, 75%. Besides, in data set [1], the logP was 2.76[a].
Regarding `Cn1nc(C(F)F)c(C(=O)Nc2cccc3c2COC3(C)C)c1F` [Example 3], the Eff. % in the data set with Uromyces appendiculatus (500 ppm) and in the data set on Puccinia recondita (500 ppm) was 100% in each case. Also, the logP in data set [1] is 2.35[a].
Regarding `CCC1OC(C)(C)c2cccc(NC(=O)c3c(C(F)F)nn(C)c3Cl)c21` (stereo not drawn) [Example 15], the Eff. % in the data set with Pyrenophora teres turned out to be 92%; in the data set on Uromyces appendiculatus (100 ppm), 100%; with Sphaerotheca fuliginea it was 98%; with Puccinia recondita (100 ppm) it was 100%; with Alternaria brassicae it was 75%. For the same compound, in data set [1], the logP is 2.94[a].
In the case of `CCC1OC(CC)(CC)c2cccc(NC(=O)c3cn(C)nc3C(F)F)c21` (stereo not drawn) [Example 23], the Eff. % with Pyrenophora teres amounted to 92%; in the data set with Uromyces appendiculatus (100 ppm), 100%; in the data set with Sphaerotheca fuliginea, 100%; with Botrytis cinerea, 97%; in the data set with Puccinia recondita (100 ppm) it was 98%; in the data set with Alternaria brassicae, 88%. For the same compound, in data set [1], the logP was 3.26[a].
